Results as given in the supplement of paper PMC11208160.

Experiment: recombinant UMI read abundance after kanamycin selection (control-corrected) (log10(CPM+1)); higher = more efficient recombination; extreme values may be limits of the assay; sequences stand for … in AGTGCAGAGAAAATCGGCCAGTTTTCTCTGCCTGCAGTCCGCATGCCGTGGGACCCCTTGGGTTCTAACCTGTTGCCTAGATTTATGCAGCGGACTGCCTTTCTCCCAAAGTGATAAACCGG…AGGTTGGTTTCACT; site = the 11-nt donor
Summary of the method: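 Two replicates each of selected and unselected plating were used in this pooled Escherichia coli screen of donor and donor-binding-loop pairs for the IS621 bridge recombinase. Selection was with IPTG (0.07 mM) and kanamycin. Counts of recombinant UMIs, amplified across the donor–target junction, were converted to CPM, averaged, scaled by control-derived factors and reported as log10(CPM+1).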
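Further: IS621 bridge recombinase in Escherichia coli cells against a fixed T5 target plasmid.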

| Sequence | recombinant UMI read abundance (log10) |
| --- | --- |
| TTAATACCATGGACCGGTTTTCCCGGTAATCCGTATTTGAG (site TTAATACCTCT) | 0.0468 |
| TTAATTTCATGGACCGGTTTTCCCGGTAATCCGTATTTGCA (site TTAATTTCTTG) | 0.69 |
| TTACGTCCATGGACCGGTTTTCCCGGTAATCCGTATTTGCA (site TTACGTCCTTG) | 0.977 |
| TTACTACCATGGACCGGTTTTCCCGGTAATCCGTATTTGCG (site TTACTACCTCG) | 0.0128 |
| TTAGAACCATGGACCGGTTTTCCCGGTAATCCGTATTTGCA (site TTAGAACCTTG) | 0 |
| TTAGCCGCATGGACCGGTTTTCCCGGTAATCCGTATTTGAC (site TTAGCCGCTGT) | 2.72 |
| TTAGGATCATGGACCGGTTTTCCCGGTAATCCGTATTTGAT (site TTAGGATCTAT) | 2.58 |
| TTAGTTCCATGGACCGGTTTTCCCGGTAATCCGTATTTGTT (site TTAGTTCCTAA) | 0.183 |
| TTAGTTGCATGGACCGGTTTTCCCGGTAATCCGTATTTGTG (site TTAGATGCTCA) | 0.0164 |
| TTAGTTGCATGGACCGGTTTTCCCGGTAATCCGTATTTGTG (site TTAGCTGCTCA) | 0.0133 |
| TTAGTTGCATGGACCGGTTTTCCCGGTAATCCGTATTTGTG (site TTAGGTGCTCA) | 0.0142 |
| TTAGTTGCATGGACCGGTTTTCCCGGTAATCCGTATTTGTG (site TTAGTTGCTCA) | 1.15 |
| TTATAGGCATGGACCGGTTTTCCCGGTAATCCGTATTTGGA (site TTATAGGCTTC) | 0.419 |
| TTATGAGCATGGACCGGTTTTCCCGGTAATCCGTATTTGTC (site TTATGAGCTGA) | 2.45 |
| TTATGTGCATGGACCGGTTTTCCCGGTAATCCGTATTTGCT (site TTATGTGCTAG) | 2.36 |
| TTATTACCATGGACCGGTTTTCCCGGTAATCCGTATTTGAG (site TTATTACCTCT) | 0.00691 |
| TTATTTGCATGGACCGGTTTTCCCGGTAATCCGTATTTGTA (site TTATTTGCTTA) | 0.103 |
| TTCAACTCATGGACCGGTTTTCCCGGTAATCCGTATTTGAC (site TTCAACTCTGT) | 0 |
| TTCAATTCATGGACCGGTTTTCCCGGTAATCCGTATTTGGG (site TTCAATTCTCC) | 0 |
| TTCCACCCATGGACCGGTTTTCCCGGTAATCCGTATTTGTA (site TTCCACCCTTA) | 0.00477 |
| TTCCAGGCATGGACCGGTTTTCCCGGTAATCCGTATTTGAG (site TTCCAGGCTCT) | 0.0112 |
| TTCCCGCCATGGACCGGTTTTCCCGGTAATCCGTATTTGAA (site TTCCCGCCTTT) | 0.0206 |
| TTCCCTTCATGGACCGGTTTTCCCGGTAATCCGTATTTGTA (site TTCCCTTCTTA) | 0 |
| TTCCGAACATGGACCGGTTTTCCCGGTAATCCGTATTTGGT (site TTCCGAACTAC) | 0.00692 |
| TTCCTGGCATGGACCGGTTTTCCCGGTAATCCGTATTTGAG (site TTCCTGGCTCT) | 0.00387 |

| Sequence | recombinant UMI read abundance (log10) |
| --- | --- |
| TTCCTGTCATGGACCGGTTTTCCCGGTAATCCGTATTTGAA (site TTCCTGTCTTT) | 0.0685 |
| TTCGCCACATGGACCGGTTTTCCCGGTAATCCGTATTTGAG (site TTCGCCACTCT) | 0 |
| TTCGCTACATGGACCGGTTTTCCCGGTAATCCGTATTTGGC (site TTCGCTACTGC) | 0 |
| TTCGGATCATGGACCGGTTTTCCCGGTAATCCGTATTTGCT (site TTCGGATCTAG) | 0 |
| TTCGGGCCATGGACCGGTTTTCCCGGTAATCCGTATTTGCC (site TTCGGGCCTGG) | 0 |
| TTCGTATCATGGACCGGTTTTCCCGGTAATCCGTATTTGAC (site CTAGTATCTGT) | 0 |
| TTCGTATCATGGACCGGTTTTCCCGGTAATCCGTATTTGAC (site TTCGTATCTGT) | 0 |
| TTCTGAGCATGGACCGGTTTTCCCGGTAATCCGTATTTGCT (site TTCTGAGCTAG) | 0.802 |
| TTCTTCGCATGGACCGGTTTTCCCGGTAATCCGTATTTGCG (site TTCTTCGCTCG) | 0.00387 |
| TTGAATCCATGGACCGGTTTTCCCGGTAATCCGTATTTGTT (site CGGAATCCTAA) | 0 |
| TTGAATCCATGGACCGGTTTTCCCGGTAATCCGTATTTGTT (site TTGAATCCTAA) | 0.901 |
| TTGAATTCATGGACCGGTTTTCCCGGTAATCCGTATTTGTT (site TTGAATTCTAA) | 0 |
| TTGCACGCATGGACCGGTTTTCCCGGTAATCCGTATTTGGT (site TTGCACGCTAC) | 0.647 |
| TTGCCGTCATGGACCGGTTTTCCCGGTAATCCGTATTTGGT (site TTGCCGTCTAC) | 0.144 |
| TTGCCTTCATGGACCGGTTTTCCCGGTAATCCGTATTTGGT (site TAGCCTTCTAC) | 0.0133 |
| TTGCCTTCATGGACCGGTTTTCCCGGTAATCCGTATTTGGT (site TCGCCTTCTAC) | 0.00778 |
| TTGCCTTCATGGACCGGTTTTCCCGGTAATCCGTATTTGGT (site TGGCCTTCTAC) | 0.0098 |
| TTGCCTTCATGGACCGGTTTTCCCGGTAATCCGTATTTGGT (site TTGCCTTCTAC) | 0.00638 |
| TTGCGGGCATGGACCGGTTTTCCCGGTAATCCGTATTTGGA (site TTGCGGGCTTC) | 0.00996 |
| TTGCGGGCATGGACCGGTTTTCCCGGTAATCCGTATTTGGG (site TTGCGGGCTCC) | 0.00376 |
| TTGCGTTCATGGACCGGTTTTCCCGGTAATCCGTATTTGTC (site TTGCGTTCTGA) | 0 |
| TTGCTGGCATGGACCGGTTTTCCCGGTAATCCGTATTTGAG (site TTGCTGGCTCT) | 0 |
| TTGCTTACATGGACCGGTTTTCCCGGTAATCCGTATTTGAC (site TTGCTTACTGT) | 0 |
| TTGGAATCATGGACCGGTTTTCCCGGTAATCCGTATTTGCG (site TAGGAATCTCG) | 1.81 |
| TTGGAATCATGGACCGGTTTTCCCGGTAATCCGTATTTGCG (site TCGGAATCTCG) | 0.968 |

| Sequence | recombinant UMI read abundance (log10) |
| --- | --- |
| TTGGAATCATGGACCGGTTTTCCCGGTAATCCGTATTTGCG (site TGGGAATCTCG) | 0.00536 |
| TTGGAATCATGGACCGGTTTTCCCGGTAATCCGTATTTGCG (site TTGGAATCTCG) | 2.27 |
| TTGGCAACATGGACCGGTTTTCCCGGTAATCCGTATTTGCT (site TTGGCAACTAG) | 0.0704 |
| TTGGCTGCATGGACCGGTTTTCCCGGTAATCCGTATTTGTG (site TTAGCTGCTCA) | 0.0254 |
| TTGGCTGCATGGACCGGTTTTCCCGGTAATCCGTATTTGTG (site TTCGCTGCTCA) | 0.0142 |
| TTGGCTGCATGGACCGGTTTTCCCGGTAATCCGTATTTGTG (site TTGGCTGCTCA) | 0.00853 |
| TTGGCTGCATGGACCGGTTTTCCCGGTAATCCGTATTTGTG (site TTTGCTGCTCA) | 0.0121 |
| TTGGTAACATGGACCGGTTTTCCCGGTAATCCGTATTTGAG (site TTGGTAACTCT) | 0.734 |
| TTGGTACCATGGACCGGTTTTCCCGGTAATCCGTATTTGCA (site TTGGTACCTTG) | 0.00424 |
| TTGGTTCCATGGACCGGTTTTCCCGGTAATCCGTATTTGTG (site TTGGTTCCTCA) | 0.0354 |
| TTGTAAGCATGGACCGGTTTTCCCGGTAATCCGTATTTGCA (site TTGTAAGCTTG) | 1.17 |
| TTGTCGACATGGACCGGTTTTCCCGGTAATCCGTATTTGTC (site TTGTCGACTGA) | 0.433 |
| TTGTGCTCATGGACCGGTTTTCCCGGTAATCCGTATTTGGG (site TTGTGCTCTCC) | 0.0159 |
| TTTAGCCCATGGACCGGTTTTCCCGGTAATCCGTATTTGCT (site TTTAGCCCTAG) | 0 |
| TTTATAGCATGGACCGGTTTTCCCGGTAATCCGTATTTGCG (site TTTATAGCTCG) | 0.232 |
| TTTCACACATGGACCGGTTTTCCCGGTAATCCGTATTTGGA (site TTTCACACTTC) | 0.0104 |
| TTTCACGCATGGACCGGTTTTCCCGGTAATCCGTATTTGGT (site TTTCACGCTAC) | 0.0228 |
| TTTCCTCCATGGACCGGTTTTCCCGGTAATCCGTATTTGCG (site TTTCCTCCTCG) | 0.0281 |
| TTTCGAGCATGGACCGGTTTTCCCGGTAATCCGTATTTGCA (site ATTCGAGCTTG) | 0.411 |
| TTTCGAGCATGGACCGGTTTTCCCGGTAATCCGTATTTGCA (site CTTCGAGCTTG) | 0.13 |
| TTTCGAGCATGGACCGGTTTTCCCGGTAATCCGTATTTGCA (site GTTCGAGCTTG) | 0.969 |
| TTTCGAGCATGGACCGGTTTTCCCGGTAATCCGTATTTGCA (site TTTCGAGCTTG) | 1.31 |
| TTTCGCACATGGACCGGTTTTCCCGGTAATCCGTATTTGCG (site TTTCGCACTCG) | 0.00398 |
| TTTCGCACATGGACCGGTTTTCCCGGTAATCCGTATTTGTC (site TTTCGCACTGA) | 0.308 |
| TTTCGCCCATGGACCGGTTTTCCCGGTAATCCGTATTTGTG (site TTTCGCCCTCA) | 0.0225 |
